US11058119B2, “Biologicals and their use in plants” (priority 2015, dated 2021)

Columns and labels:
[1] = system: Metarhizium robertsii (15013-1); assay: Determination of fungicide sensitivity, conidia growth in liquid media; type: cell-based; conditions: 5,000 conidia in 0.5 ml YMA, 26° C., visual observation
Description: (§1) Conidia of Metarhizium robertsii (15013-1) and Metarhizium robertsii (23013-3) were produced by growing the fungus on potato dextrose agar plates for 1-2 weeks at 23° C. under continuous illumination from fluorescent lights. Conidia were harvested from the plate in water containing Tween-20 (0.01%) and counted using a hemacytometer. Fungicide sensitivity was determined by mixing 5,000 conidia in 0.5 ml of YMA (2 g yeast extract, 4 g malt extract per liter) liquid media containing varying concentrations of commercially available fungicides active against filamentous fungi in a 24 well plate. Plates were incubated for […] at 26° C. and then growth was assessed by visual observation with a stereomicroscope.

[2] = system: Metarhizium robertsii (23013-3); assay: as above; type: cell-based; conditions: 5,000 conidia in 0.5 ml YMA, 26° C., visual observation
Description: as §1

Row | SMILES | growth of 15013-1 conidia compared to a control without any fungicide ([1]; Fungicide Concentration 3 uM) | growth of 15013-1 conidia compared to a control without any fungicide ([1]; Fungicide Concentration 10 uM) | growth of 15013-1 conidia compared to a control without any fungicide ([1]; Fungicide Concentration 30 uM) | growth of 23013-3 conidia compared to a control without any fungicide ([2]; Fungicide Concentration 3 uM) | growth of 23013-3 conidia compared to a control without any fungicide ([2]; Fungicide Concentration 10 uM) | growth of 23013-3 conidia compared to a control without any fungicide ([2]; Fungicide Concentration 30 uM)
1 | c1ccc2[nH]c(-c3cscn3)nc2c1 [Thiabendazole] | ++++ (growth of about 50% or more compared to a control without any fungicide) | ++++ (growth of about 50% or more compared to a control without any fungicide) | ++++ (growth of about 50% or more compared to a control without any fungicide) | +++ (growth of about 30% or about 70% inhibition compared to a control without any fungicide) | ++++ (growth of about 50% or more compared to a control without any fungicide) | ++++ (growth of about 50% or more compared to a control without any fungicide)
2 | N#Cc1c[nH]cc1-c1cccc2c1OC(F)(F)O2 [Fludioxonil] | + (growth of about 10% or about 90% inhibition compared to a control without any fungicide) | + (growth of about 10% or about 90% inhibition compared to a control without any fungicide) | + (growth of about 10% or about 90% inhibition compared to a control without any fungicide) | + (growth of about 10% or about 90% inhibition compared to a control without any fungicide) | + (growth of about 10% or about 90% inhibition compared to a control without any fungicide) | + (growth of about 10% or about 90% inhibition compared to a control without any fungicide)
3 | CO/C=C(/C(=O)OC)c1ccccc1Oc1cc(Oc2ccccc2C#N)ncn1 [Azoxystrobin] | ++ (growth of about 20% or about 80% inhibition compared to a control without any fungicide) | + (growth of about 10% or about 90% inhibition compared to a control without any fungicide) | − | + (growth of about 10% or about 90% inhibition compared to a control without any fungicide) | − | −
